Patent US7947839B2, “Heterocyclic-substituted bis-1,8 naphthalimide compounds, antibody drug conjugates, and methods of use” (Genentech, Inc., priority 2004, dated 2011)
Like-named read-outs stand apart in the source and are kept apart here.

Experiments:
[1] = molecular target: T1, topoisomerase I isolated from calf thymus (Bos taurus, UniProt F1MN93); details: supercoiled DNA relaxation assay; cited from earlier work
T1 construct: topoisomerase I isolated from calf thymus; from tissue; host or cells: calf thymus
T1 sequence (F1MN93 1-767): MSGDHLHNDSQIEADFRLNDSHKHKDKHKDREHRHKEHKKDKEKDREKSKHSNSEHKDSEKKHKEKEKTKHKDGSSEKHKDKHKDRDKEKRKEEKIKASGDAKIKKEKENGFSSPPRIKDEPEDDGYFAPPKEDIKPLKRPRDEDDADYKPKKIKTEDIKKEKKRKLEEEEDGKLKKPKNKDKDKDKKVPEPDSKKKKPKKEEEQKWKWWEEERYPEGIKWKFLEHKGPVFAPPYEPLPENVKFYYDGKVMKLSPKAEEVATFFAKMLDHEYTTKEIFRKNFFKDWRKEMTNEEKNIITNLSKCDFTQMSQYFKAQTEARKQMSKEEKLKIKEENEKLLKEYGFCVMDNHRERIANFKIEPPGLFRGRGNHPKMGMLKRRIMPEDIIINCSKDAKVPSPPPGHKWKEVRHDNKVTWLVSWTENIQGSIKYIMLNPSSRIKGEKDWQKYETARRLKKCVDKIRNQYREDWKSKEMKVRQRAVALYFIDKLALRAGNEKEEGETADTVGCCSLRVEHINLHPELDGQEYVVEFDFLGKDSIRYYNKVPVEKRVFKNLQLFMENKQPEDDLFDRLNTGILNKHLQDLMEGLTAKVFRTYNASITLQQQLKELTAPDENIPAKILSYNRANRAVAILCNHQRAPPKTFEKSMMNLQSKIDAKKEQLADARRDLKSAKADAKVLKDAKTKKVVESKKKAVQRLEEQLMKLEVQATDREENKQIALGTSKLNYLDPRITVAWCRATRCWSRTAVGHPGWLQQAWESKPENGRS

topoisomerase II = details: unlike most other known topoisomerase II inhibitors; cited from earlier work
mouse xenograft models = details: repeated dosing regimens; no strong schedule dependency; cited from earlier work
[2] = tested on: MX-1 (mammary carcinoma) xenografts; details: iv five daily doses at 20 mg/kg (2 cycles), or every 3 days for two doses at 55 mg/kg (2 cycles), or weekly for four doses; cited from earlier work
human melanoma (LOX) = details: in vivo; cited from earlier work
[3] = tested on: human lung (LX-1) carcinoma xenograft; details: in vivo; cited from earlier work
[4] = tested on: human colon (CX-1) carcinoma xenograft; details: in vivo; cited from earlier work
[5] = tested on: BT474, H460, HCT116, HUVEC, LNCAP, MCF7, and PC3 cells; assay: free test compound cell-based assay, 7 tumor cell panel (CellTiter-Glo); parameters: species or system Human; details: Homo sapiens, NSA = no significant activity
Description: Heterocyclic-substituted bis-1,8-naphthalimide compounds of Formula XV in Table 2 were prepared and tested for in vitro activity against a panel of tumor cells (Example 110).
Alternatively, the efficacy of compounds of the invention can be assayed by the following free test compound cell-based assay protocol
• 1. Prepare each cell line (BT474, H460, HCT116, HUVEC, LNCaP, MCF7, and PC3) at 1 k cells/well in separate plates with Complete Media (CM): RPM1 […]+10% FBS (Fetal Bovine Serum)+1% of 200 mM L-Glutamine. Plate number depends on test compounds provided by submitter. • 2. Detach prospective cell lines by first removing the media. When the flask is empty of media, begin rinsing out individual flasks with 5 mL sterile PBS. Move the PBS around within the flask to rinse well. Decant the PBS and add aseptically 5 mL of Accutase/flask. Make sure the Accutase covers the entire flask. • 3. Immediately place the flask(s) into a 37° C. incubator to allow cells to detach for 5-7 minutes. • 4. Post 5-7 minutes, remove flask(s) from the incubator and begin harvesting the detached cells using a serological pipette. Pipette up and down along the back of the flask to facilitate cell detachment. Pipette the Accutase containing cells into a sterile 50 mL conical tube/cell line. Pipette 10 mL of sterile PBS and re-rinse the flask to obtain remaining cells and dispense it into the same 50 mL conical tube/cell line for a total volume of 15 mL/tube/cell line. • 5. After each cell line has been allocated to a designated tube, take out 100 μL/tube/cell line for the cell counts. While the cell counts are being calculated, centrifuge the 50 mL tubes at 1000 rpm at 4° C. with a high brake. • 6. When centrifugation and cell calculations are completed, decant excess liquid and resuspend the cell pellet(s) using 5 mL CM, depending on calculations. • 7. Using a 5 mL syringe and an 18 G ½ needle, strain the cells to help prevent aggregation. Further strain by using a […] cell filter to block out any huge aggregates not broken down by the needle. • 8. After cell straining and filtering, take out calculated amount for a 1 k cells/well into fresh media. Take the media containing cells and load 100 μL/well into a bottom tissue culture treated flat 96 well plate. • 9. Immediately place in a 37° C. incubator overnight to allow the cells to adhere to the tissue culture treated 96 well plates. Day 2: • 1. Test compounds are submitted at 10 mM in sterile DMSO. • 2. DMSO as negative control and a positive standard are used in every assay! • 3. Prepare a 1:1000 fold dilution for each test compound, control, and standard for a 10e-5 M starting point. Do a 1:100 first, then a 1:10. • 4. Prior to diluting samples, vortex the samples and the controls for a homogeneous mixture. Note any sample that will not solubilize and/or stay in suspension. • 5. When the samples are at 10e-5 M, vortex each tube well and spin down fluid to ensure sample remains in tacked. Manual Dilution Protocol: • 1. After the tubes are at a final 1:1000 (10e-5 M) dilution, load the first column of the microtube box with the prospective sample. Load DMSO and positive control in singlets. The test compounds are loaded in duplicates. Load the remaining empty microtube racks with 540 μL of media to prepare for a serial dilution of 1:10. • 2. Agitate and transfer 60 μL from column 1 into successive wells containing 540 μL of media (1:10). Therefore, transfer 60 μL of column 1 into 540 μL of column 2. Resuspend column 2 about 10-15×'s then transfer 60 μL from column 2 to column 3 etc. Automated Dilution Protocol: • 1. Once the tubes are at a final 1:1000 (10e-5 M), load the first column of the microtube box with the prospective sample. Load DMSO and positive control in singlets. The compounds are loaded in duplicates. Load the remaining empty microtube racks manually with 540 μL of media to prepare for the automated serial dilution of 1:10 (see above diagram). • 2. […]

[6] = average linear IC50 across the 7 tumor cell panel, read-out: Avg.
[7] = average log IC50 across the 7 tumor cell panel, read-out: Avg. (log IC50) (converted)

**Q.** For `O=C1c2cccc3cccc(c23)C(=O)N1CCNCCCNCCN1C(=O)c2cccc3cccc(c23)C1=O` [elinafide], which IC50 [1] is on record?
**A.** Its IC50 is 5 µM.

**Q.** And the DNA cleavage (topoisomerase II)?
**A.** Its DNA cleavage is “does not cause significant DNA cleavage”.

**Q.** What about the antitumor activity (mouse xenograft models) of the same molecule?
**A.** Its antitumor activity is “demonstrated antitumor activity”.

**Q.** What about the “regression of MX-1 (mammary carcinoma) xenografts” value [2] of the same molecule?
**A.** The value was “complete regression”.

**Q.** And the “efficacy in human melanoma (LOX) models” value (human melanoma (LOX))?
**A.** Its value is “curative”.

**Q.** And the “tumor regression in human lung (LX-1) carcinoma xenograft model” value [3]?
**A.** Its value is “partial and complete tumor regression, as well as some cures”.

**Q.** What about the “tumor regression in human colon (CX-1) carcinoma xenograft model” value [4] of the same molecule?
**A.** Its value is “partial and complete tumor regression, as well as some cures”.

**Q.** What does the source list for `CC(=O)c1ccc2c3c(cccc13)C(=O)N(CCNCCCNCCN1C(=O)c3cccc4c(N5CCOCC5)ccc(c34)C1=O)C2=O` [Compound 62, N, N′-(bis-aminoethyl-1,3-propanediamine)-4-acetyl,4-morpholino-1,8 naphthalimide]?
**A.** IC50 [5, 6]: 0.00457 µM; IC50 [5, 7]: 0.00457 µM

**Q.** Which IC50 [5, 6] does the source give for `O=C1c2cccc3cc([N+](=O)[O-])cc(c23)C(=O)N1CCNCCCNCCN1C(=O)c2cccc3c(N4CCOCC4)ccc(c23)C1=O` [Compound 56a, N, N′-(bis-aminoethyl-1,3-propanediamine)-3-nitro, 4-morpholino-1,8 naphthalimide] here?
**A.** Its IC50 is 0.00162 µM.

**Q.** And the IC50 [5, 7]?
**A.** The IC50 was 0.00162 µM.

**Q.** Which results are given for `O=C1c2cccc3c(O)ccc(c23)C(=O)N1CCNCCCNCCN1C(=O)c2cccc3c(-n4ccnc4)ccc(c23)C1=O` [Compound 65, N, N′-(bis-aminoethyl-1,3-propanediamine)-4-(N-imidazolyl)-4-hydroxyl-1,8 naphthalimide]?
**A.** IC50 [5, 6]: 0.288 µM; IC50 [5, 7]: 0.288 µM

**Q.** Which IC50 [5, 6] does the source give for `CN1CCN(c2ccc3c4c(cccc24)C(=O)N(CCNCCNCCN2C(=O)c4cccc5c(N6CCN(C)CC6)ccc(c45)C2=O)C3=O)CC1` [Compound 60, N, N′-(bis-aminoethyl-1,2-ethanediamrne)-bis-4-(4-methylpiperazino)-1,8 naphthalimide] here?
**A.** Its IC50 is 0.00105 µM.

**Q.** And the IC50 [5, 7]?
**A.** Its IC50 is 0.00105 µM.

**Q.** Which results are given for `O=C1c2cccc3c(N4CCOCC4)ccc(c23)C(=O)N1CCNCCCN(CCCS)CCN1C(=O)c2cccc3c(N4CCOCC4)ccc(c23)C1=O` [Compound 55a, N, N′-(N-3-mercaptopropyl, bis-aminoethyl-1,3-propanediamine)-bis-4-morpholino-1,8 naphthalimide]?
**A.** IC50 [5, 6]: 0.0575 µM; IC50 [5, 7]: 0.0575 µM

**Q.** What does the source list for `O=C1c2cccc3c(N4CCNCC4)ccc(c23)C(=O)N1CCNCCCNCCN1C(=O)c2cccc3c(N4CCNCC4)ccc(c23)C1=O` [Compound 58a, N, N′-(bis-aminoethyl-1,3-propanediamine)-bis-4-piperazino-1,8 naphthalimide]?
**A.** IC50 [5, 6]: 0.0017 µM; IC50 [5, 7]: 0.0017 µM

**Q.** Which results are given for `O=C(CN1C(=O)c2cccc3c(N4CCOCC4)ccc(c23)C1=O)NCCCNC(=O)CN1C(=O)c2cccc3c(N4CCOCC4)ccc(c23)C1=O` [Compound 34, N, N′-(bis-2-acetamido-1,3-propanediamine)-bis-4-morpholino-1,8 naphtbalimide]?
**A.** IC50 [5, 6]: 2.19 µM; IC50 [5, 7]: 2.19 µM

**Q.** Which IC50 [5, 6] does the source give for `O=C(CN1C(=O)c2cccc3c(N4CCOCC4)ccc(c23)C1=O)NCCCNCCN1C(=O)c2cccc3c(N4CCOCC4)ccc(c23)C1=O` [Compound 41] here?
**A.** The IC50 was 0.00339 µM.

**Q.** What about the IC50 [5, 7] of the same molecule?
**A.** The IC50 was 0.00339 µM.

**Q.** Which IC50 [5, 6] does the source give for `O=C(CN1C(=O)c2cccc3c(N4CCOCC4)ccc(c23)C1=O)NCCNCCCN1C(=O)c2cccc3c(N4CCOCC4)ccc(c23)C1=O` [Compound 38] here?
**A.** Its IC50 is 1.82 µM.

**Q.** What about the IC50 [5, 7] of the same molecule?
**A.** The IC50 was 1.82 µM.

**Q.** For `CN1CCN(c2ccc3c4c(cccc24)C(=O)N(CCNCCNCCN2C(=O)c4cccc5c(Br)ccc(c45)C2=O)C3=O)CC1` [Compound 61, N, N′-(bis-aminoethyl-1,2-ethanediamine)-4-piperazino,4-bromo-1,8 naphthalimide], which IC50 [5, 6] is on record?
**A.** Its IC50 is 0.0407 µM.

**Q.** What about the IC50 [5, 7] of the same molecule?
**A.** The IC50 was 0.0407 µM.

**Q.** Which IC50 [5, 6] does the source give for `O=C(CCS)N(CCCNCCN1C(=O)c2cccc3c(N4CCOCC4)ccc(c23)C1=O)CCN1C(=O)c2cccc3c(N4CCOCC4)ccc(c23)C1=O` [Compound 55c, N, N′-(N-3-mercaptopropionyl, bis-aminoethyl-1,3-propanediamine)-bis-4-morpholino-1,8 naphthalimide] here?
**A.** The IC50 was 3.71 µM.

**Q.** What about the IC50 [5, 7] of the same molecule?
**A.** The IC50 was 3.72 µM.
